Where two headings read alike, the source gives them in different places.
Tests used:
[1] = target: T1, hT1R1/hT1R3 umami receptor expressed in an HEK293 cell line (Homo sapiens, UniProt Q7RTX0+Q7RTX1); assay: In vitro hT1R1/hT1R3 umami taste receptor activation assay (FLIPR, dose response); format: cell-based
T1 construct: expressed in transfected cells; host or cells: HEK293 cell line derivative, hT1R1/hT1R3-HEK293-Gα15, clone I-17, mifepristone-induced
T1 sequence (Q7RTX1 21-841): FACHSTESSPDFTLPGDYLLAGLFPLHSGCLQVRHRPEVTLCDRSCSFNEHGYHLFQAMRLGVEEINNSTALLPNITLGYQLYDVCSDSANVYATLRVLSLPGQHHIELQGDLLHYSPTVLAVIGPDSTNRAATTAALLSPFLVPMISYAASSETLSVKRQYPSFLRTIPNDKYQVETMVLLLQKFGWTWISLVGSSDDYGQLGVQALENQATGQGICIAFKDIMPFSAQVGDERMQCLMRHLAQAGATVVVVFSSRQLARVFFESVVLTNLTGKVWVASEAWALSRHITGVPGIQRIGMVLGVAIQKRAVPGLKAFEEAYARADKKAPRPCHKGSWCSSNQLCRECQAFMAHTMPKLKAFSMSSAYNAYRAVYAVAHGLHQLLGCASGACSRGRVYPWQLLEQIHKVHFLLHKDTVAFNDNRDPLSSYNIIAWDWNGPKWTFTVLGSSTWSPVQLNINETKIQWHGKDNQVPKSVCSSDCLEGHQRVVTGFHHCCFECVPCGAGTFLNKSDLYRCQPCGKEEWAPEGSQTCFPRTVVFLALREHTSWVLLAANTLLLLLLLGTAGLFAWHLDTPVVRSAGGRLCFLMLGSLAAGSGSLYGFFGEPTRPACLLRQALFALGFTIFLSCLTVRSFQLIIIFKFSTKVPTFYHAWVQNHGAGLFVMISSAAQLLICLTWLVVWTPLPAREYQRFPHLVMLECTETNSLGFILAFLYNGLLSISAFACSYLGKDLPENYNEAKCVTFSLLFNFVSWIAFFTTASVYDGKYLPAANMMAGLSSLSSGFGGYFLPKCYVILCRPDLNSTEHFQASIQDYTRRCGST
T1 sequence (Q7RTX0 21-852): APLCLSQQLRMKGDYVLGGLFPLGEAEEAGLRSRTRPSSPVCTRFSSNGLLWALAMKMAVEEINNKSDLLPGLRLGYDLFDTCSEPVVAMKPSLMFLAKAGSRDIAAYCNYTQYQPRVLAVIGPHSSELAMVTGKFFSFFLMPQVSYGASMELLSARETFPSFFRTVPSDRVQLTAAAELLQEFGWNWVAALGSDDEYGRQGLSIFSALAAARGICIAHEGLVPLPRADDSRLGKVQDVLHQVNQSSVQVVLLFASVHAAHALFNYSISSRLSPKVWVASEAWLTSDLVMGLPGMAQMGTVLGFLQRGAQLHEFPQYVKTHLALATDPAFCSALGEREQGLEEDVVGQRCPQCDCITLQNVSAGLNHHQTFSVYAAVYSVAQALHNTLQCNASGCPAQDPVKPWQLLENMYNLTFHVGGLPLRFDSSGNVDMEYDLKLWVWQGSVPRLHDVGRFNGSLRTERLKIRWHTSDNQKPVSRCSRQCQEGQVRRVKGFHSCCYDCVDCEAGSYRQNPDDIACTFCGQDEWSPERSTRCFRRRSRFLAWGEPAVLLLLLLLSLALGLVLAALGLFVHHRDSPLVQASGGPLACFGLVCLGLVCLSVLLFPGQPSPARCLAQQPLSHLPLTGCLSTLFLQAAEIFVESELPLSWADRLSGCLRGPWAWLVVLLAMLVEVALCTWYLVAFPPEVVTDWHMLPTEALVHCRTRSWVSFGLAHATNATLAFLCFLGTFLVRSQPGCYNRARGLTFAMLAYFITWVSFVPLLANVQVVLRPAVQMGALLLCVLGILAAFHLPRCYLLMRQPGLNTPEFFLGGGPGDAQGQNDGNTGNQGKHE
Protocol: Activity was determined using an automated fluorometric imaging assay on a FLIPR instrument ([…], Molecular Devices, Sunnyvale, Calif.) (designated FLIPR assay). […] After replacement with 25 μl D-PBS, stimulation was performed in the FLIPR instrument and at room temperature by the addition of 25 μl D-PBS supplemented with different stimuli at concentrations corresponding to twice the desired final level. Receptor activity was quantified by determining the maximal fluorescence increases (using a 480 nm excitation and 535 nm emission) after normalization to basal fluorescence intensity measured before stimulation.
Activities were normalized to the response obtained with 60 mM monosodium glutamate, a concentration that elicits maximum receptor response.

[2] = target: T1, hT1R1/hT1R3 umami receptor expressed in an HEK293 cell line; assay: Umami taste enhancement activity assay (EC50 ratio vs. MSG, FLIPR); format: cell-based
Protocol: A series of measurements of the dose response is run in solutions comprising MSG alone, then a second dose response is run with MSG in combination with predetermined amounts of a candidate compound of Formula (I) at the same time.
Typical compound concentrations tested were 30 μM, 10 μM, 3 μM, 1 μM, 0.3 μM, 0.1 μM and 0.03 μM. The relative efficacy of compounds of Formula (I) at enhancing the receptor was determined by calculating the magnitude of a shift in the EC50 for monosodium glutamate. Enhancement was defined as a ratio (EC50R) corresponding to the EC50 of monosodium glutamate, determined in the absence of the test compound, divided by the EC50 of monosodium glutamate, determined in the presence of the test compound.
Stated alternatively, “EC50 ratio” as compared to MSG is calculated based on the following definitions: EC50 Ratio vs. MSG=EC50 (MSG)/EC50 (MSG+[Compound]) • wherein “[compound]” refers to the concentration of the compound of Formula (I) used to elicit (or enhance or potentiate) the MSG dose response.

[3] = read-out: EC50 for activation of a hT1R1/hT1R3 umami receptor expressed in an HEK293 cell line
[4] = Table A, triazoles, read-out: Umami EC50
[5] = Table B, pyridazines, read-out: Umami EC50

Row | SMILES | EC50 [1, 3] | EC50 [1, 4] | further results
1 | COc1cc(C)ccc1-c1nc(SCc2ccccn2)n[nH]1 [Example 1, 2-((5-(2-methoxy-4-methylphenyl)-1H-1,2,4-triazol-3-ylthio)methyl)pyridine] | 80 nM | – | EC50 ratio (enhanced the effectiveness of monosodium glutamate) ([2]; compound present at 0.03 μM): 5.9
2 | COc1cc(C)ccc1-c1nc(SCc2ccc(C)cn2)n[nH]1 [Example 2, 2-((5-(2-methoxy-4-methylphenyl)-1H-1,2,4-triazol-3-ylthio)methyl)-5-methylpyridine] | 490 nM | – | –
3 | CCc1ccc(-c2nc(SCc3ccccn3)n[nH]2)cc1 [Example 4, 2-((5-(4-Ethylphenyl)-1H-1,2,4-triazol-3-ylthio)methyl)pyridine] | 140 nM | – | EC50 ratio (enhanced the effectiveness of monosodium glutamate) ([2]; compound present at 0.03 μM): 4.4
4 | Cc1cc(-c2nc(SCc3ccccn3)n[nH]2)oc1C [Example 5, 2-((5-(4,5-dimethylfuran-2-yl)-1H-1,2,4-triazol-3-ylthio)methyl)pyridine] | 580 nM | – | EC50 ratio (enhanced the effectiveness of monosodium glutamate) ([2]; compound present at 0.1 μM): 4.4
5 | c1ccc(CSc2n[nH]c(-c3cc4ccccc4o3)n2)nc1 [Example 6] | 2580 nM | – | EC50 ratio (enhanced the effectiveness of monosodium glutamate) ([2]; compound present at 0.1 μM): 2.88
6 | CCc1ccc(-c2nc(SCc3ccccn3)n[nH]2)c(C)c1 [Example 10, 2-((5-(4-Ethyl-2-methylphenyl)-1H-1,2,4-triazol-3-ylthio)methyl)pyridine] | 20 nM | – | –
7 | Cc1ccc(-c2cn(Cc3ccccn3)nn2)cc1 [Example 11, 2-((4-p-Tolyl-1H-1,2,3-triazol-1-yl)methyl)pyridine] | 4660 nM | – | –
8 | Cc1ccc(-c2cn(CCc3ccccn3)nn2)cc1 [Example 12, 2-(2-(4-p-Tolyl-1H-1,2,3-triazol-1-yl)ethyl)pyridine] | 16400 nM | – | –
9 | Cc1ccc(-c2ccc(SCc3ccccn3)nn2)c(C)c1 [Example 13, 3-(2,4-Dimethylphenyl)-6-(pyridin-2-ylmethylthio)pyridazine] | 1500 nM | – | –
10 | Cc1ccc(-c2ccc(SCc3ccccc3)nn2)c(C)c1 [Example 14, 3-(Benzylthio)-6-(2,4-dimethylphenyl)pyridazine] | 2700 nM | – | –
11 | Cc1ccc(-c2ccc(OCc3ccccn3)nn2)c(C)c1 [Example 15, 3-(2,4-Dimethylphenyl)-6-(pyridin-2-ylmethoxy)pyridazine] | 6900 nM | – | –
12 | Cc1ccc(-c2nnc(NCc3ccccn3)o2)c(C)c1 [Example 16, 5-(2,4-Dimethylphenyl)-N-(pyridin-2-ylmethyl)-1,3,4-oxadiazol-2-amine] | 10300 nM | – | –
13 | Cc1ccc(-c2ccc(SCc3cccnc3)nn2)c(C)c1 [Example 17] | 15200 nM | – | –
14 | CCc1ccc(-c2nc(SCc3ccccn3)n[nH]2)c(OC)c1 [Example 18, 2-((5-(4-ethyl-2-methoxyphenyl)-1H-1,2,4-triazol-3-ylthio)methyl)pyridine] | 50 nM | – | –
15 | COc1ccc(-c2n[nH]c(SCc3ccccn3)n2)cc1 [Example A6, 2-((5-(4-methoxyphenyl)-2H-1,2,4-triazol-3-ylthio)methyl)pyridine] | – | 520 nM | –
16 | Cc1cccc(-c2n[nH]c(SCc3ccccn3)n2)c1 [Example A8, 2-((5-m-tolyl-2H-1,2,4-triazol-3-ylthio)methyl)pyridine] | – | 940 nM | –
17 | COc1ccc(-c2n[nH]c(SCc3ccc(C)cn3)n2)c(OC)c1 [Example A9, 2-((5-(2,4-dimethoxyphenyl)-2H-1,2,4-triazol-3-ylthio)methyl)-5-methylpyridine] | – | 1070 nM | –
18 | c1ccc(CSc2nc(-c3cccc4c3OCO4)n[nH]2)nc1 [Example A11, 2-((5-(benzo[d][1,3]dioxol-4-yl)-2H-1,2,4-triazol-3-ylthio)methyl)pyridine] | – | 1350 nM | –
19 | Clc1ccccc1-c1n[nH]c(SCc2ccccn2)n1 [Example A14, 2-((5-(2-chlorophenyl)-2H-1,2,4-triazol-3-ylthio)methyl)pyridine] | – | 2480 nM | –
20 | Cc1ccoc1-c1n[nH]c(SCc2ccccn2)n1 [Example A21, 2-((5-(3-methylfuran-2-yl)-2H-1,2,4-triazol-3-ylthio)methyl)pyridine] | – | 9410 nM | –
21 | COc1ccccc1-c1n[nH]c(SCCc2ccccn2)n1 [Example A22, 2-(2-(5-(2-methoxyphenyl)-2H-1,2,4-triazol-3-ylthio)ethyl)pyridine] | – | 7380 nM | –
22 | Cn1c(Cc2ccccc2)nnc1SCc1ccc(Cl)c(Cl)c1 [Example A23, 3-benzyl-5-(3,4-dichlorobenzylthio)-4-methyl-4H-1,2,4-triazole] | – | 13000 nM | –
23 | Cn1c(Cc2ccccc2)nnc1SCc1ccc(Cl)cc1Cl [Example A24, 3-benzyl-5-(2,4-dichlorobenzylthio)-4-methyl-4H-1,2,4-triazole] | – | 6050 nM | –
24 | CCn1c(SCc2cccnc2)nnc1-c1cccc(C)c1 [Example A25, 3-((4-ethyl-5-m-tolyl-4H-1,2,4-triazol-3-ylthio)methyl)pyridine] | – | 13100 nM | –
25 | CCn1c(SCc2cccnc2)nnc1-c1cc2ccccc2cc1O [Example A26, 3-(4-ethyl-5-(pyridin-3-ylmethylthio)-4H-1,2,4-triazol-3-yl)naphthalen-2-ol] | – | 1890 nM | –
26 | Cn1c(Cc2ccsc2)nnc1SCc1ccc(Cl)cc1 [Example A27, 3-(4-chlorobenzylthio)-4-methyl-5-(thiophen-3-ylmethyl)-4H-1,2,4-triazole] | – | 7920 nM | –
27 | c1ccc(CSc2ccc(-c3ccc4c(c3)OCCO4)nn2)nc1 [Example B1, 3-(2,3-dihydrobenzo[b][1,4]dioxin-yl)-6-(pyridin-2-ylmethylthio)pyridazine] | – | – | EC50 [1, 5]: 600 nM
28 | COc1ccc(-c2ccc(SCc3ccccn3)nn2)cc1OC [Example B2, 3-(3,4-dimethoxyphenyl)-6-(pyridin-2-ylmethylthio)pyridazine] | – | – | EC50 [1, 5]: 1700 nM
29 | c1cncc(CSc2ccc(-c3ccc4c(c3)OCCO4)nn2)c1 [Example B3, 3-(2,3-dihydrobenzo[b][1,4]dioxin-6-yl)-6-(pyridin-3-ylmethylthio)pyridazine] | – | – | EC50 [1, 5]: 8400 nM
30 | CSc1ccc(-c2nnn(Cc3ccccn3)n2)cc1 [Example C1, 2-((5-(4-(methylthio)phenyl)-2H-tetrazol-2-yl)methyl)pyridine] | – | – | EC50 ([1]; Table C, tetrazole, read-out: Umami EC50): 5910 nM

Reference: patent US8784782B2 (Senomyx, Inc., priority 2005, dated 2014)
